The text below walks through data of ChEMBL document CHEMBL5465560, “Selectivity Literature for EUbOPEN Chemogenomic Library” (2024).

The target in assay [1] is Protein kinase C eta type (Homo sapiens) (UniProt P24723). Particulars: at 10 µM.
Assay [2] deals with T1, Serine/threonine-protein kinase ULK1 (Homo sapiens) (UniProt O75385).
T1 sequence (whole entry): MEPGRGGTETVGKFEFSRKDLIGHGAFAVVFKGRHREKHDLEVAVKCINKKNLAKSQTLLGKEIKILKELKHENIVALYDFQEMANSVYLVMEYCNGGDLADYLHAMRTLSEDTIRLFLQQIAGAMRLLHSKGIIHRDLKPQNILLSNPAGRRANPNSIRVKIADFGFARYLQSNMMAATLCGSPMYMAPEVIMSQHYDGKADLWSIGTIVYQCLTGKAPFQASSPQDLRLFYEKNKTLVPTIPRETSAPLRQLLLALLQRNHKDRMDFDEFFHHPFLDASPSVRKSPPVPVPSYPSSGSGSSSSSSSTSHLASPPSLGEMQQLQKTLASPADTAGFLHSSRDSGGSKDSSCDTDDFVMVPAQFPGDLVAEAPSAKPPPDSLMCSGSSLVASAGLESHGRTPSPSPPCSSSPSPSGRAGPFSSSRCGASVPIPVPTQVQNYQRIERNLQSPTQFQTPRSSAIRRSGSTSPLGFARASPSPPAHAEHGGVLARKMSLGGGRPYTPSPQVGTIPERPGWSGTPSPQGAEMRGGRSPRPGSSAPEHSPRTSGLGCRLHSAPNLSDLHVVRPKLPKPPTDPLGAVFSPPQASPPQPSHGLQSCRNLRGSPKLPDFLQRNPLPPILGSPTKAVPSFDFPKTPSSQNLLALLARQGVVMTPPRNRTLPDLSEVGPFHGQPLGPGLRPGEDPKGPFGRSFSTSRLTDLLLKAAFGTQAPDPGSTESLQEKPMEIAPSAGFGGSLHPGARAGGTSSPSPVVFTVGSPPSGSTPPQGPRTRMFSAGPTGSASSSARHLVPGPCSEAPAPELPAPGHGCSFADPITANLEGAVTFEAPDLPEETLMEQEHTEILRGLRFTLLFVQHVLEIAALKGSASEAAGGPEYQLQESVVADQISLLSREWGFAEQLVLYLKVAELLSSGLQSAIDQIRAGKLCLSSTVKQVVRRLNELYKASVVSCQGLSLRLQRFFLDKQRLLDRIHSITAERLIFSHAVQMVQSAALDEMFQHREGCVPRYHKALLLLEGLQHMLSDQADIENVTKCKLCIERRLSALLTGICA
As to the kind of experiment: Selectivity interaction (Kinase panel (DSF assay)) EUB0001558a ULK1. In general terms: DSF heats the sample and reads unfolding from a dye or from intrinsic fluorescence.

The target of assay [3] is T2, NUAK family SNF1-like kinase 2 (Homo sapiens) (UniProt Q9H093).
T2 sequence (whole entry): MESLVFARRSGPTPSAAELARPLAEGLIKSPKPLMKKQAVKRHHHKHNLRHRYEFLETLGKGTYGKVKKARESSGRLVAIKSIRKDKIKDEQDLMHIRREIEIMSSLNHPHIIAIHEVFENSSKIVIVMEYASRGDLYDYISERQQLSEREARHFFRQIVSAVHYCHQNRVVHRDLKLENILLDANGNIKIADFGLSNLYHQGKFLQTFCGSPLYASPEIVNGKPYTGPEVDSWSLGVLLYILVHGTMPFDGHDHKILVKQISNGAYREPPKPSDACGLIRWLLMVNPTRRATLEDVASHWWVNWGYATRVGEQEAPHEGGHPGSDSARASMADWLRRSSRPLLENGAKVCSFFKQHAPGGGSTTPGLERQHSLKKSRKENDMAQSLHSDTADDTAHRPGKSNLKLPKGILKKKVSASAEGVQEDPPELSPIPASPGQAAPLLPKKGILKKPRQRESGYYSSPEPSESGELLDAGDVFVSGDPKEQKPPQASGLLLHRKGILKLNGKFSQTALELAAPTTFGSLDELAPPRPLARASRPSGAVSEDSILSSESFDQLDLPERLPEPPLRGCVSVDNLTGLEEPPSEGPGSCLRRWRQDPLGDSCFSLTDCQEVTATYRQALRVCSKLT
The assay is described as follows: Selectivity interaction (Ambit KINOMEscan and KiNATiv profiling in Jurkat cells) EUB0000090b NUAK2. The following applies: at 1 µM. It is filed as cell-based.

The target in another assay is SRSF protein kinase 1 (Homo sapiens, UniProt Q96SB4). As to the kind of experiment: Selectivity interaction (Ambit KINOMEscan and KiNATiv profiling in Jurkat cells) EUB0000090b SRPK1. Format: cell-based. Particulars: at 1 µM.
Sequence of SRSF protein kinase 1 (Q96SB4 whole entry): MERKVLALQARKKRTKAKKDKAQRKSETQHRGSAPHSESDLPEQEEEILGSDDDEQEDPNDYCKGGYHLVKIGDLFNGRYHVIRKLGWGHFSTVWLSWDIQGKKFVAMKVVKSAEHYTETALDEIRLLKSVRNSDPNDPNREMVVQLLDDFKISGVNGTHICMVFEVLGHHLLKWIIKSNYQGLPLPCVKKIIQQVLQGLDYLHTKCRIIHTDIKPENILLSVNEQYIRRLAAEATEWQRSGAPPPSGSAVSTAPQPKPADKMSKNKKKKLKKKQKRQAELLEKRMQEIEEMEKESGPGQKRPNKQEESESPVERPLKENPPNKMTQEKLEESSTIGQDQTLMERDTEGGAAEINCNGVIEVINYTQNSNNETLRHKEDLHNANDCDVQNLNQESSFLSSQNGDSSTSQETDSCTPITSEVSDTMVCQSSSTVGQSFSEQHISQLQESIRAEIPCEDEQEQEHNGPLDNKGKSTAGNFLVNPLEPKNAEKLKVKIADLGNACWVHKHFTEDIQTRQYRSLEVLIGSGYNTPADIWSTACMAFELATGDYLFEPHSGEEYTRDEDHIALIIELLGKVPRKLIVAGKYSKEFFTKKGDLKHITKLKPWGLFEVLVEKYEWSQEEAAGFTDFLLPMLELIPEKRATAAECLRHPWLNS
The target in assay [4] is Serine/threonine-protein kinase 38-like (Homo sapiens) (UniProt Q9Y2H1). As to the kind of experiment: Selectivity interaction (ActivX KiNativ screen (kinase selectivity in THP-1 cell lysates)) EUB0000639a STK38L. Particulars: lysate, at 1 µM. It is filed as subcellular.
Sequence of Serine/threonine-protein kinase 38-like (Homo sapiens) (Q9Y2H1 2-464 limits assumed): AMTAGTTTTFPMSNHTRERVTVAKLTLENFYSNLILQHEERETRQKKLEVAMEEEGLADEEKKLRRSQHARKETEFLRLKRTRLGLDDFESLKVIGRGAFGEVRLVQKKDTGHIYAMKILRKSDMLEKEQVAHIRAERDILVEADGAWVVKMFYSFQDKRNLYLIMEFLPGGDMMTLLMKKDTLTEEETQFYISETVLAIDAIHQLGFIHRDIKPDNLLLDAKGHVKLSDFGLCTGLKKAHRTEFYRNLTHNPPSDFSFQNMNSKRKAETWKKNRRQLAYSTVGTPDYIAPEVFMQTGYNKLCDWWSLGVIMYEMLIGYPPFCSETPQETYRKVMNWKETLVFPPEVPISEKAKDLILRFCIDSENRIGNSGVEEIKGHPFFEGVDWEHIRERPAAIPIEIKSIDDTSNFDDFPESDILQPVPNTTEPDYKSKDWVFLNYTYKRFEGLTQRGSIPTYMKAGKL
For assay [5], the target named is Serine/threonine-protein kinase MRCK gamma (Homo sapiens) (UniProt Q6DT37). The assay is described as follows: Selectivity interaction (KinomeScan (DiscoverX)) EUB0001619a CDC42BPG. The following applies: at 1 µM.
Sequence of Serine/threonine-protein kinase MRCK gamma (Homo sapiens) (Q6DT37 whole entry): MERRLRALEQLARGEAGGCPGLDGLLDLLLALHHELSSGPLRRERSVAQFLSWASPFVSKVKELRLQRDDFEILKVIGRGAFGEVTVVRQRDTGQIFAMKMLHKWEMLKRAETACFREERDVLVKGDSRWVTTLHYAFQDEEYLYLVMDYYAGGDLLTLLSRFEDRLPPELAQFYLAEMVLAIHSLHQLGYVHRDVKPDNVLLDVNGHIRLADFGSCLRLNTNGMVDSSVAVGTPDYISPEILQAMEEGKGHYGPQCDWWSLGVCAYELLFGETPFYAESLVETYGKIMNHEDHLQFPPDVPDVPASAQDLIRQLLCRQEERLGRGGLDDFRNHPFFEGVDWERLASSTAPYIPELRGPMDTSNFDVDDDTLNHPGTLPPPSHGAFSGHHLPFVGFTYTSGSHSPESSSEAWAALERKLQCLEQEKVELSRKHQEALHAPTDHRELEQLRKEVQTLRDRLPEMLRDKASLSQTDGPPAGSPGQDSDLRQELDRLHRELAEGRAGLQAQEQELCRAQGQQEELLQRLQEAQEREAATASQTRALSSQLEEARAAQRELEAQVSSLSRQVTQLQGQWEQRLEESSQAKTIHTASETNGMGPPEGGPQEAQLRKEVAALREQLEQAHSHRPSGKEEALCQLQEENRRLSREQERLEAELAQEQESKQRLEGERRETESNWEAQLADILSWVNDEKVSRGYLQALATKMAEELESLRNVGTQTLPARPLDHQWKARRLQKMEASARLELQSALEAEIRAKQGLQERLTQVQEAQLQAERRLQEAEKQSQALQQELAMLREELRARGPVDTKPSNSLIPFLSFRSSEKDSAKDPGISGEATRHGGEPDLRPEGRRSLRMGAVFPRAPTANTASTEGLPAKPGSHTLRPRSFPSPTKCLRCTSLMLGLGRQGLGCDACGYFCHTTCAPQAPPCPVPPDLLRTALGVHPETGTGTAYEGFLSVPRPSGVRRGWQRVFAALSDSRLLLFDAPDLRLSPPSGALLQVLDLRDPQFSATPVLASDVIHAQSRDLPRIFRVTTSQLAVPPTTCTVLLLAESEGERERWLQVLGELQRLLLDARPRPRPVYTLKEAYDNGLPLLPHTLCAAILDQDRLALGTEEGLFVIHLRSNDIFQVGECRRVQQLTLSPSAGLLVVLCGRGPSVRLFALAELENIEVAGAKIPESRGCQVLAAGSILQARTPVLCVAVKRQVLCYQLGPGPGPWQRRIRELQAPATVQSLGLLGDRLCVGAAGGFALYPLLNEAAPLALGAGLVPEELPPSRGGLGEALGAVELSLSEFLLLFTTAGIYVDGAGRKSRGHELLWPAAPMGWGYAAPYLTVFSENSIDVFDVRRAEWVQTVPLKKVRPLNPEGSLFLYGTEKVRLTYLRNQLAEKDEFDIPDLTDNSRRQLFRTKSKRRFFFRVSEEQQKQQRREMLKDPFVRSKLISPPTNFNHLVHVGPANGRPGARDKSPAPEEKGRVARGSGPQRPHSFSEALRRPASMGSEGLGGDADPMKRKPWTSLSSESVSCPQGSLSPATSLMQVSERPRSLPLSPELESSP

Sequence of Protein kinase C eta type (Homo sapiens) (P24723 whole entry): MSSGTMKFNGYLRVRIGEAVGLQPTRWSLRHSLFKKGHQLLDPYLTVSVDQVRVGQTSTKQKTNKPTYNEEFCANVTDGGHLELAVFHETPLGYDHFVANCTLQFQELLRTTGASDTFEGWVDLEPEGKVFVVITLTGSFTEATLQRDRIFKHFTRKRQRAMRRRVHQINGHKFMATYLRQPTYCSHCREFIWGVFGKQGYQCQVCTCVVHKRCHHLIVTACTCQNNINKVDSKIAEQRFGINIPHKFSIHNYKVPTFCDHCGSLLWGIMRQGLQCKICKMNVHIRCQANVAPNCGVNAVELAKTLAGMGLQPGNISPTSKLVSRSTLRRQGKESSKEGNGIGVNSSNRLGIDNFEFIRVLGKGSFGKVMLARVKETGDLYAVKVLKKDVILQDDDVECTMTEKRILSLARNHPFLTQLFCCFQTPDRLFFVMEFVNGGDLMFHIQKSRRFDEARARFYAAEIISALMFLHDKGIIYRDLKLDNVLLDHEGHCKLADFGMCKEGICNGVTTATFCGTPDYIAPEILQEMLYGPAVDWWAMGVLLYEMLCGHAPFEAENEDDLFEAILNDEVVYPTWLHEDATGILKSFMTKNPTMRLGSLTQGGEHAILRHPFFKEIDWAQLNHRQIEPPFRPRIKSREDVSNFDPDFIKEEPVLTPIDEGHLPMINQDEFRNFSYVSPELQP

Regarding `Cc1cc([C@@H](C)Nc2ccccc2C(=O)O)c2nc(N3CCOCC3)cc(=O)n2c1` [AZD-6482], in assay [1], the % of control is 82%.
In assay [2], `CC(C)(O)[C@H](F)CN1Cc2cc(NC(=O)c3cnn4cccnc34)c(N3CCOCC3)cc2C1=O` displayed a dTM of 0.5 K.
As for `CN(C)C/C=C/C(=O)Nc1ccc(C(=O)N2CCCC(Nc3ncc(Cl)c(-c4c[nH]c5ccccc45)n3)C2)cc1` (stereo unspecified), the % of control in assay [3] came to 94%; at SRSF protein kinase 1, 52%.
In assay [4], `CC[C@@H]1[C@H](F)C(=O)N[C@@H]1COc1nccc2cc(C(N)=O)c(OC)cc12` [ZIMLOVISERTIB] gave a % of inhibition of 47.8%.
In assay [5], `N#Cc1cccc(-c2c[nH]c3ncnc(N4CCOCC4)c23)c1` had a % of control of 100%.
